In patent publication US20240218327A1, “METHOD FOR QUICKLY AND EFFICIENTLY DIFFERENTIATING FUNCTIONAL GLIAL CELLS” (priority 2020, published 2024):

Columns and labels:
NFIB-induced astrocytes [1] = test: Calcium transient assay (Fluo-4 calcium imaging); format: cell-based, human
Procedure: To confirm whether the cells acquire the ability to change intracellular calcium concentration, gene set enrichment analysis (GSEA) was employed to validate the expression pattern of genes related to this specific function. This analysis involved comparing the ranked gene signature of day 0 cells versus day 14 cells, with genes related to calcium-mediated signaling (GO:0019722). […] Calcium imaging was conducted on cells on days 7 and 14 using Fluo-4, a calcium indicator, and the intracellular calcium transients between two time points were compared. For calcium imaging, the differentiated astrocytes were prepared on 12 mm coverslips. After replacing the cell culture medium with Hank's Balanced Salt Solution (HBSS, without calcium or magnesium) (Thermo Fisher Scientific), differentiated astrocytes were incubated with 5 μM Fluo-4 AM (Thermo Fisher Scientific) at 37° C. for 30 minutes and then washed twice with the HBSS solution before calcium imaging. Thereafter, intracellular calcium levels were analyzed using the Fluo-4 AM fluorescence dye detection method, employing a confocal microscope (Fluoview FV1000, Olympus). For this purpose, intensity images of 535 nm wavelength were captured at 488 nm excitation wavelength at a rate of one frame per 2 seconds. Intracellular calcium levels were expressed as a fluorescence ratio (F/FO), calculated as changes in the fluorescence intensity (F) after treatments with 30 μM ATP or 100 μM glutamate, compared to the initial fluorescence intensity (FO) in the resting state.

hPSC-NPCs = system: hPSC-NPCs
Description: FIG. 8A illustrates clustering and scaled expression patterns for differentially expressed genes (DEGs) during the differentiation process using NFIB. […] FIG. 8E and FIG. 8F quantify the percentage of cells positive for each marker on day 14 of differentiation. […] Data is presented as the mean #s.e.m. (n=3) (* p<0.05, ** p<0.01, *** p<0.001).

NFIB-induced astrocytes [2] = test: Glutamate uptake analysis; format: cell-based, human; conditions: 100 µM of glutamate; after 3 hours; day 7 of differentiation; n=6
Description: Uptake of excitatory neurotransmitters such as glutamate is another critical function of the astrocytes in the nervous system. This is because excessive glutamate concentration results in excitotoxic damage to the nervous tissue, potentially causing neurodegeneration. As there was a gradual upregulation of the neurotransmitter recycling protein, GLUL, in due course of gene expression (FIG. 5C, indicated by a red box with an asterisk), the ability of the NFIB-induced astrocytes to take up glutamate was assessed throughout differentiation to determine whether the ability improves. The astrocytes were exposed to 100 µM of glutamate, and the concentration of glutamate remaining in the medium was measured after 3 hours on day 7 and day 14. […] This increased uptake correlates well with the gradual increment of various genes related to neurotransmitter uptake (GO: 0001504), including SCL1A3 (a gene encoding excitatory amino acid transporter 1, also known as GLAST) and ARL6IP5 (a gene encoding glutamate transporter EEAC1-interacting protein).

Compound: Nc1ncnc2c1ncn2[C@@H]1O[C@H](COP(=O)(O)OP(=O)(O)OP(=O)(O)O)[C@@H](O)[C@H]1O [ATP]
- cells with amplitude of calcium transients (F/FO) less than 3, among total cells (NFIB-induced astrocytes [1]; 30 μM ATP, day 7 of differentiation, n=70): 84.3%
- amplitude of calcium transients, fluorescence ratio (NFIB-induced astrocytes [1]; 30 μM ATP, day 14 of differentiation, all the cells tested, n=80): ≥ 3 F/FO
- duration of elevated intracellular calcium level (NFIB-induced astrocytes [1]; 30 μM ATP, regardless of the differentiation period (day 7 and day 14)): ≥ 50 s

Compound: N#CC(=C(/N)Sc1ccccc1N)/C(C#N)=C(\N)Sc1ccccc1N [U0126]
- cell death (hPSC-NPCs; 20 μM): did not induce significant cell death
- cell proliferation (hPSC-NPCs; 20 μM): tended to slightly decrease cell proliferation
- GFAP-positive cells (astrocytes) in total cells (hPSC-NPCs; 20 μM, Treatment Condition 3: two days from day 12 to day 14 of differentiation): 26.88%
- number of SOX1-positive cells (hPSC-NPCs; 20 μM, among treatment groups, day 14): not significantly different among the groups
- morphology of GFAP-positive cells (hPSC-NPCs; 20 μM, compared with vehicle-treated group, correlated with exposure time): small cell body with fewer short processes
- number of GFAP-positive cells (hPSC-NPCs; 20 μM, prolonged treatment (Treatment Condition 1 or 2), day 14): significantly reduced the number of GFAP-positive cells
- astrocyte differentiation (fluorescence images for GFAP and SOX1) (hPSC-NPCs; pharmacological inhibition of the MAPK signaling pathway, FIG. 8D): robust suppression of astrocyte differentiation

Compound: glutamate
- glutamate uptake (NFIB-induced astrocytes [2]): 12.34±1.17%
- duration of asynchronous calcium oscillations (NFIB-induced astrocytes [1]; 100 μM glutamate, day 7 of differentiation): less than 100 seconds
- average amplitude of calcium response (NFIB-induced astrocytes [1]; 100 μM glutamate, day 7 of differentiation, n=19): 4.92±0.32 F/FO
- cells with amplitudes greater than 10 (NFIB-induced astrocytes [1]; 100 μM glutamate, day 14 of differentiation): 32.4%
- amplitude of intracellular calcium peaks (NFIB-induced astrocytes [1]; 100 μM glutamate, day 14 of differentiation, n=26): 9.63±1.07 F/FO
